Source: publication PMC10850145, “Hormonal steroids induce multidrug resistance and stress response genes in Neisseria gonorrhoeae by binding to MtrR” (Nature Communications, 2024)
Several values for one entry are separate records, joined by “and”; a condition that tells them apart may be missing. Equal entries are not always repeated. Entries after “also recorded” stand apart in the source; their conditions may differ. Where two headings read alike, the source gives them in different places.

Tests used:
gonococcal strain FA19 = assay: MIC of steroidal hormones on GC agar, strain FA19; type: cell-based; details: Neisseria gonorrhoeae, strain FA19, GC agar, read-out: MIC
Method: (§1) To determine the minimal inhibitory concentrations (MICs) by the steroidal hormones and their effect on antimicrobial susceptibility, 5 x 10^5 CFU and 1:5 serial dilutions of gonococcal strains were spotted on GC agar plates containing different concentrations of antibiotics and/or hormones as indicated. Antimicrobial susceptibility was assessed after 24 h incubation.
(§2) Table S1. Steroidal hormones are substrates of the MtrCDE efflux pump
(§3) Progesterone Testosterone
(§4) *Minimal inhibition concentration is defined by the lowest concentration at which visible growth is […]

lptA-lacZ expression = assay: β-galactosidase assay, lptA-lacZ fusion (negative control gene); details: WT-lptA-lacZ
rpoH-lacZ expression = type: cell-based, Neisseria gonorrhoeae; details: for Miller units, single well: individual replicate; for Miller units, Mean: mean of 4 wells; for Miller units / β-galactosidase activity (Miller units): rpoH-lacZ, single replicate
N. gonorrhoeae = test system: N. gonorrhoeae; set-up: method as in PMID 816438; details: listed as PTR; cited from earlier work
MtrR D171A = target: T1, MtrR D171A (Neisseria gonorrhoeae, UniProt P39897, D171A); assay: biochemical; type: binding
T1 construct: Hexa-histidine tag with TEV protease cleavage site (N, cleaved yes); made in house; host or cells: E. coli Rosetta Gami B(DE3) pLysS

[1] = test system: mutant strain JF1 (ΔmtrR); assay: Antimicrobial susceptibility spot assay with hormone plus antibiotic, JF1 (ΔmtrR); type: cell-based, Neisseria gonorrhoeae; details: derivative lacking MtrR (JF1), azithromycin
Method: (§5) Fig. 5 Effect of steroidal hormones on gonococcal antimicrobial susceptibility.
as §1

MtrR R176E = target: T2, MtrR R176E (Neisseria gonorrhoeae, UniProt P39897, R176E); assay: biochemical; type: binding
T2 construct: Hexa-histidine tag with TEV protease cleavage site (N, cleaved yes); made in house; host or cells: E. coli Rosetta Gami B(DE3) pLysS

wild type FA19 = assay: Antimicrobial susceptibility spot assay with hormone plus azithromycin or polymyxin B, wild type FA19; type: cell-based, Neisseria gonorrhoeae; details: wild-type FA19, GC agar, 24 h, visual
Method: as §5, §1

ngo1249-lacZ expression = assay: β-galactosidase assay, ngo1249-lacZ fusion (negative control gene); details: WT-NGO1249-lacZ
FA19 mtrD::kan (KH14) [2] = assay: MIC of steroidal hormones on GC agar, FA19 mtrD::kan (KH14); type: cell-based, Neisseria gonorrhoeae
Method: as §1, §2, §3, §4

FA19 mtrD::kan (KH14) [3] = test system: FA19 mtrD::kan (KH14); set-up: method as in PMID 31744915; details: cited from earlier work
[4] = 6.25 µM hormone, plate columns 1-6 (WT)
[5] = 6.25 µM hormone, plate columns 7-12 (second strain, not WT)
[6] = 12.5 µM hormone, plate columns 1-6 (WT)
[7] = 12.5 µM hormone, plate columns 7-12 (second strain, not WT)
[8] = 25 µM hormone, plate columns 1-6 (WT)
[9] = 25 µM hormone, plate columns 7-12 (second strain, not WT)
[10] = 50 µM hormone, plate columns 1-6 (WT)
[11] = 50 µM hormone, plate columns 7-12 (second strain, not WT)
[12] = ΔmtrR + mtrR D171A in trans, 6.25 µM hormone
[13] = ΔmtrR + mtrR D171A in trans, 12.5 µM hormone
[14] = ΔmtrR + mtrR D171A in trans, 25 µM hormone
[15] = ΔmtrR + mtrR D171A in trans, 50 µM hormone

T2 sequence (P39897 whole entry R176E): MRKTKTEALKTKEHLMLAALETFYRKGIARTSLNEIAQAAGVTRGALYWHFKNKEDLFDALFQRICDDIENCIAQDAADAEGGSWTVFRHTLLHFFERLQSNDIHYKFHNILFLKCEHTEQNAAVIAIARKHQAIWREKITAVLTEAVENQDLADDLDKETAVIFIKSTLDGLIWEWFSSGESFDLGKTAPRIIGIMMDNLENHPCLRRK
T1 sequence (P39897 whole entry D171A): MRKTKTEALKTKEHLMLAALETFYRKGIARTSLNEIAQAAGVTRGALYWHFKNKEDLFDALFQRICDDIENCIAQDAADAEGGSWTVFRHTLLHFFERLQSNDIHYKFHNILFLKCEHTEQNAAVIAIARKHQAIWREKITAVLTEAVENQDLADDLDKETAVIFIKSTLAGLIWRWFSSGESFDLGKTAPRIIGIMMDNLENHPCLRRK

CC(=O)[C@H]1CC[C@H]2[C@@H]3CCC4=CC(=O)CC[C@]4(C)[C@H]3CC[C@]12C [Progesterone, progesterone]
MIC (gonococcal strain FA19; 24 h): 127 µM | MIC (gonococcal strain FA19): 40 µg/mL | Mean Miller units (lptA-lacZ expression; 0.1 µM hormone): 10 Miller units | Mean Miller units (lptA-lacZ expression; 1 µM hormone): 13 Miller units | Mean Miller units (lptA-lacZ expression; 10 µM hormone): 13 Miller units | Mean Miller units (lptA-lacZ expression; 50 µM hormone): 10 Miller units | Mean Miller units (lptA-lacZ expression; 100 µM hormone): 12 Miller units | Miller units, single well (rpoH-lacZ expression; [4]): 42 Miller units and 34 Miller units and 33 Miller units | Miller units, Mean (rpoH-lacZ expression; [4]): 35 Miller units | Miller units, single well (rpoH-lacZ expression; [5]): 87 Miller units and 84 Miller units and 94 Miller units and 85 Miller units | Miller units, Mean (rpoH-lacZ expression; [5]): 87 Miller units | Miller units, single well (rpoH-lacZ expression; [6]): 35 Miller units and 36 Miller units and 31 Miller units and 38 Miller units | Miller units, Mean (rpoH-lacZ expression; [6]): 35 Miller units | Miller units, single well (rpoH-lacZ expression; [7]): 87 Miller units and 78 Miller units and 71 Miller units and 77 Miller units | Miller units, Mean (rpoH-lacZ expression; [7]): 78 Miller units | Miller units, single well (rpoH-lacZ expression; [8]): 60 Miller units and 61 Miller units and 39 Miller units and 59 Miller units | Miller units, Mean (rpoH-lacZ expression; [8]): 55 Miller units | Miller units, single well (rpoH-lacZ expression; [9]): 95 Miller units and 81 Miller units and 89 Miller units and 80 Miller units | Miller units, Mean (rpoH-lacZ expression; [9]): 86 Miller units | Miller units, single well (rpoH-lacZ expression; [10]): 66 Miller units and 65 Miller units and 44 Miller units | Miller units, Mean (rpoH-lacZ expression; [10]): 60 Miller units | Miller units, single well (rpoH-lacZ expression; [11]): 64 Miller units and 60 Miller units and 72 Miller units and 71 Miller units | Miller units, Mean (rpoH-lacZ expression; [11]): 67 Miller units | induction of rpoH expression (rpoH-lacZ expression; complemented (MtrR+) strains, increasing hormone): could be induced | induction of rpoH expression (rpoH-lacZ expression; loss of MtrR or MtrR-D171A strain): abrogated | Miller units (rpoH-lacZ expression; [12]): 94 Miller units | β-galactosidase activity (Miller units) (rpoH-lacZ expression; [12]): 87 Miller units and 84 Miller units and 85 Miller units | Miller units (rpoH-lacZ expression; [13]): 71 Miller units | β-galactosidase activity (Miller units) (rpoH-lacZ expression; [13]): 87 Miller units and 78 Miller units and 77 Miller units | Miller units (rpoH-lacZ expression; [14]): 89 Miller units | β-galactosidase activity (Miller units) (rpoH-lacZ expression; [14]): 95 Miller units and 81 Miller units and 80 Miller units | Miller units (rpoH-lacZ expression; [15]): 72 Miller units | β-galactosidase activity (Miller units) (rpoH-lacZ expression; [15]): 64 Miller units and 60 Miller units and 71 Miller units | β-galactosidase activity (Miller units) (rpoH-lacZ expression; ΔmtrR + mtrR WT in trans, 6.25 µM hormone): 42 Miller units and 34 Miller units and 33 Miller units | β-galactosidase activity (Miller units) (rpoH-lacZ expression; ΔmtrR + mtrR WT in trans, 12.5 µM hormone): 35 Miller units and 36 Miller units and 31 Miller units and 38 Miller units | β-galactosidase activity (Miller units) (rpoH-lacZ expression; ΔmtrR + mtrR WT in trans, 25 µM hormone): 60 Miller units and 61 Miller units and 39 Miller units and 59 Miller units | β-galactosidase activity (Miller units) (rpoH-lacZ expression; ΔmtrR + mtrR WT in trans, 50 µM hormone): 66 Miller units and 65 Miller units and 44 Miller units | β-galactosidase activity (Miller units) (rpoH-lacZ expression; ΔmtrR strain, 6.25 µM hormone): 315 Miller units and 172 Miller units and 146 Miller units | β-galactosidase activity (Miller units) (rpoH-lacZ expression; ΔmtrR strain, 12.5 µM hormone): 228 Miller units and 142 Miller units and 163 Miller units | β-galactosidase activity (Miller units) (rpoH-lacZ expression; ΔmtrR strain, 25 µM hormone): 253 Miller units and 160 Miller units and 118 Miller units | β-galactosidase activity (Miller units) (rpoH-lacZ expression; ΔmtrR strain, 50 µM hormone): 186 Miller units and 118 Miller units and 96 Miller units | Miller units (rpoH-lacZ expression; ΔmtrR, 6.25 µM hormone): 180 Miller units | Miller units (rpoH-lacZ expression; ΔmtrR, 12.5 µM hormone): 168 Miller units | Miller units (rpoH-lacZ expression; ΔmtrR, 25 µM hormone): 170 Miller units | Miller units (rpoH-lacZ expression; ΔmtrR, 50 µM hormone): 138 Miller units | β-galactosidase activity, rpoH-lacZ, Mean (rpoH-lacZ expression; strain WT (FA19/pLES94-rpoH), hormone 6.25 µM): 66 Miller units | β-galactosidase activity, rpoH-lacZ, Mean (rpoH-lacZ expression; strain WT (FA19/pLES94-rpoH), hormone 12.5 µM): 79 Miller units | β-galactosidase activity, rpoH-lacZ, Mean (rpoH-lacZ expression; strain WT (FA19/pLES94-rpoH), hormone 50 µM): 136 Miller units | activation of rpoH (rpoH-lacZ expression; strain producing MtrR R176E): almost no activation | β-galactosidase activity, rpoH-lacZ, Mean (rpoH-lacZ expression; strain ΔmtrR (FA19 ∆mtrR/pLES94-rpoH), hormone 6.25 µM): 203 Miller units | β-galactosidase activity, rpoH-lacZ, Mean (rpoH-lacZ expression; strain ΔmtrR (FA19 ∆mtrR/pLES94-rpoH), hormone 12.5 µM): 175 Miller units | β-galactosidase activity, rpoH-lacZ, Mean (rpoH-lacZ expression; strain ΔmtrR (FA19 ∆mtrR/pLES94-rpoH), hormone 25 µM): 175 Miller units | β-galactosidase activity, rpoH-lacZ, Mean (rpoH-lacZ expression; strain ΔmtrR (FA19 ∆mtrR/pLES94-rpoH), hormone 50 µM): 134 Miller units | β-galactosidase activity, rpoH-lacZ, Mean (rpoH-lacZ expression; strain ΔmtrR + mtrR D171A (pGCC3-mtrR D171A), hormone 6.25 µM): 87 Miller units | β-galactosidase activity, rpoH-lacZ, Mean (rpoH-lacZ expression; strain ΔmtrR + mtrR D171A (pGCC3-mtrR D171A), hormone 12.5 µM): 78 Miller units | β-galactosidase activity, rpoH-lacZ, Mean (rpoH-lacZ expression; strain ΔmtrR + mtrR D171A (pGCC3-mtrR D171A), hormone 25 µM): 86 Miller units | β-galactosidase activity, rpoH-lacZ, Mean (rpoH-lacZ expression; strain ΔmtrR + mtrR D171A (pGCC3-mtrR D171A), hormone 50 µM): 67 Miller units | β-galactosidase activity, rpoH-lacZ, Mean (rpoH-lacZ expression; strain ΔmtrR + mtrR WT (pGCC3-mtrR), hormone 6.25 µM): 35 Miller units | β-galactosidase activity, rpoH-lacZ, Mean (rpoH-lacZ expression; strain ΔmtrR + mtrR WT (pGCC3-mtrR), hormone 12.5 µM): 35 Miller units | β-galactosidase activity, rpoH-lacZ, Mean (rpoH-lacZ expression; strain ΔmtrR + mtrR WT (pGCC3-mtrR), hormone 25 µM): 55 Miller units | β-galactosidase activity, rpoH-lacZ, Mean (rpoH-lacZ expression; strain ΔmtrR + mtrR WT (pGCC3-mtrR), hormone 50 µM): 60 Miller units | growth inhibition of N. gonorrhoeae (N. gonorrhoeae): arrest N. gonorrhoeae growth; also recorded: most effective in growth inhibition | Kd (MtrR D171A): 8.36 ± 2.5 µM | change in antibiotic resistance in presence of sub-lethal hormone [1]: did not show change | Kd (MtrR R176E): 8.43 ± 8.3 µM | resistance to azithromycin in presence of sub-lethal hormone (wild type FA19): elevated levels of resistance | Mean Miller units (ngo1249-lacZ expression; 0.1 µM hormone): 5 Miller units | Mean Miller units (ngo1249-lacZ expression; 1 µM hormone): 8 Miller units | Mean Miller units (ngo1249-lacZ expression; 10 µM hormone): 8 Miller units | Mean Miller units (ngo1249-lacZ expression; 50 µM hormone): 6.43 Miller units | Mean Miller units (ngo1249-lacZ expression; 100 µM hormone): 6.923 Miller units | MIC (FA19 mtrD::kan (KH14) [2]; Neisseria gonorrhoeae): 20 µg/mL and 64 µM | effect of mtrD deletion on MIC (FA19 mtrD::kan (KH14) [2]; vs FA19): lowered | change of MIC by mutations of the mtrD gene (FA19 mtrD::kan (KH14) [3]): significant decrease
